We go through 20 compounds from PubChem BioAssay AID256 (DTP/NCI, 2004).

Several values for one entry are separate records, joined by “and”; a condition that tells them apart may be missing. Equal values may be shown once. Toxic doses and inconclusive results are not listed.

This assay relates to CD2F1 mice, L1210 leukemia ip, survival T/C. The experiment in a line: NCI In Vivo Anticancer Drug Screen. Data for tumor model L1210 Leukemia (intraperitoneal) in CD2F1 (CDF1) mice. As to conditions: endpoint: mean survival time, higher = longer survival. Put shortly:
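In this screen, transplantable tumors were grown in mice given either the compound or its vehicle. Results were expressed as the treated measurement relative to the control measurement.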

Where [1] appears, read: dose: 25.0 mg/kg/injection, schedule: Q04DX002 (ip), vehicle: saline.
[2] abbreviates: dose: 50.0 mg/kg/injection, schedule: Q04DX002 (ip), vehicle: saline.
The mark [3] stands for this setting: dose: 100.0 mg/kg/injection, schedule: Q01DX001 (ip), vehicle: saline.
[4] abbreviates: dose: 200.0 mg/kg/injection, schedule: Q01DX001 (ip), vehicle: saline.
Setting [5] is: dose: 100.0 mg/kg/injection, schedule: Q04DX003 (ip), vehicle: saline with Tween-80.
[6] abbreviates: dose: 200.0 mg/kg/injection, schedule: Q04DX003 (ip), vehicle: saline with Tween-80.
The mark [7] stands for this setting: dose: 400.0 mg/kg/injection, schedule: Q04DX003 (ip), vehicle: saline with Tween-80.
Setting [8] is: dose: 100.0 mg/kg/injection, schedule: Q04DX002 (ip), vehicle: saline with Tween-80.
[9] abbreviates: dose: 200.0 mg/kg/injection, schedule: Q04DX002 (ip), vehicle: saline with Tween-80.
Where [10] appears, read: dose: 12.5 mg/kg/injection, schedule: Q01DX009 (ip), vehicle: saline.
The mark [11] stands for this setting: dose: 25.0 mg/kg/injection, schedule: Q01DX009 (ip), vehicle: saline.
Setting [12] is: dose: 50.0 mg/kg/injection, schedule: Q01DX009 (ip), vehicle: saline.
[13] abbreviates: dose: 100.0 mg/kg/injection, schedule: Q01DX009 (ip), vehicle: saline.
Where [14] appears, read: dose: 200.0 mg/kg/injection, schedule: Q01DX009 (ip), vehicle: saline.
The mark [15] stands for this setting: dose: 3.0 mg/kg/injection, schedule: Q01DX009 (ip), vehicle: saline with Tween-80.
[16] abbreviates: dose: 6.0 mg/kg/injection, schedule: Q01DX009 (ip), vehicle: saline with Tween-80.
[17] abbreviates: dose: 12.0 mg/kg/injection, schedule: Q01DX009 (ip), vehicle: saline with Tween-80.

As to `CC1(C)SC2C(NC(=O)Cc3ccccc3)C(=O)N2C1C(=O)O` (configuration not stated), the T/C was 97 % of control (dose: 25.0 mg/kg/injection, schedule: Q01DX001 (ip), vehicle: saline); 97 % of control under setting [1]; 100 % of control (dose: 50.0 mg/kg/injection, schedule: Q01DX001 (ip), vehicle: saline); 100 % of control under setting [2]; 100 % of control and 102 % of control under setting [3]; 97 % of control and 100 % of control (dose: 100.0 mg/kg/injection, schedule: Q04DX002 (ip), vehicle: saline). Also, the T/C (dose: 200.0 mg/kg/injection, schedule: Q01DX001 (ip), vehicle: carboxymethylcellulose (CMC)) was 104 % of control; the T/C under setting [4] was 97 % of control and 100 % of control; the T/C (dose: 200.0 mg/kg/injection, schedule: Q04DX002 (ip), vehicle: saline) was 102 % of control and 104 % of control; the T/C (dose: 400.0 mg/kg/injection, schedule: Q01DX001 (ip), vehicle: carboxymethylcellulose (CMC)) was 100 % of control.

As for `ClC(Cl)c1ccccc1C(Cl)(Cl)Cl`, the T/C under setting [3] is 104 % of control; the T/C (dose: 100.0 mg/kg/injection, schedule: Q01DX009 (ip), vehicle: saline with Tween-80) was 99 % of control; the T/C under setting [5] is 94 % of control; the T/C under setting [4] is 98 % of control; the T/C (dose: 200.0 mg/kg/injection, schedule: Q01DX009 (ip), vehicle: saline with Tween-80) was 101 % of control; the T/C under setting [6] is 94 % of control. Further, the T/C is 98 % of control (dose: 400.0 mg/kg/injection, schedule: Q01DX001 (ip), vehicle: saline); 94 % of control (dose: 400.0 mg/kg/injection, schedule: Q01DX009 (ip), vehicle: saline with Tween-80); 88 % of control under setting [7].

With `N#CC(c1cccc([N+](=O)[O-])c1)C(CC(=O)c1ccccc1)c1ccccc1` (configuration not stated), the T/C was 95 % of control under setting [8]; 95 % of control under setting [9]; 102 % of control (dose: 400.0 mg/kg/injection, schedule: Q04DX002 (ip), vehicle: saline with Tween-80).

As for `C1CSC(=[N+]2CC[N+](=C3SCCS3)CC2)S1`, the T/C by setting is: under setting [10], 101 % of control; under setting [11], 104 % of control; under setting [1], 100 % of control; under setting [2], 88 % of control.

Regarding `NC(CSC(c1ccccc1)(c1ccccc1)c1cccc2ccccc12)C(=O)O` (configuration not stated), the T/C runs as follows: under setting [11], 100 % of control; under setting [12], 100 % of control; under setting [13], 110 % of control; under setting [14], 102 % of control.

For `CCCCOC(=O)COc1c(Cl)ccc(Cl)c1Cl`, the T/C by setting is: under setting [8], 102 % of control; under setting [9], 95 % of control.

Regarding `CC12CCC3C(CC=C4CC(SC(=N)N)CCC43C)C1CCC2=O` (configuration not stated), the T/C is, setting by setting: (dose: 75.0 mg/kg/injection, schedule: Q01DX001 (ip), vehicle: steriod suspending solution) 90 % of control; (dose: 150.0 mg/kg/injection, schedule: Q01DX001 (ip), vehicle: steriod suspending solution) 98 % of control; (dose: 300.0 mg/kg/injection, schedule: Q01DX001 (ip), vehicle: steriod suspending solution) 98 % of control.

As to `C(=C\c1nccc2c1[nH]c1ccccc12)/c1ccccc1`, the T/C runs as follows: under setting [5], 105 % of control; under setting [6], 100 % of control; under setting [7], 105 % of control.

With `Oc1ccc(O)c(/C=N/NC(=S)NC2CC3CC2C2C=CCC32)c1` (configuration not stated), the T/C is, setting by setting: (dose: 12.5 mg/kg/injection, schedule: Q01DX009 (ip), vehicle: olive oil, sesame oil, peanut oil) 93 % of control; (dose: 25.0 mg/kg/injection, schedule: Q01DX009 (ip), vehicle: olive oil, sesame oil, peanut oil) 96 % of control; (dose: 50.0 mg/kg/injection, schedule: Q01DX009 (ip), vehicle: olive oil, sesame oil, peanut oil) 100 % of control; (dose: 100.0 mg/kg/injection, schedule: Q01DX009 (ip), vehicle: olive oil, sesame oil, peanut oil) 102 % of control; (dose: 200.0 mg/kg/injection, schedule: Q01DX009 (ip), vehicle: olive oil, sesame oil, peanut oil) 87 % of control; (dose: 400.0 mg/kg/injection, schedule: Q01DX009 (ip), vehicle: olive oil, sesame oil, peanut oil) 94 % of control.

`O=C1C(N2CC2)=C(N2CCCC(O)C2)C(=O)C(N2CC2)=C1N1CCCC(O)C1` (configuration not stated): the T/C (dose: 2.0 mg/kg/injection, schedule: Q01DX009 (ip), vehicle: saline) was 162 % of control and 173 % of control.

For `Cn1c(=O)c2c(nc(Cl)n2Cc2ccccc2)n(C)c1=O`, the T/C by setting is: (dose: 12.5 mg/kg/injection, schedule: Q01DX005 (ip), vehicle: saline with Tween-80) 93 % of control; (dose: 25.0 mg/kg/injection, schedule: Q01DX005 (ip), vehicle: saline with Tween-80) 88 % of control; (dose: 50.0 mg/kg/injection, schedule: Q01DX005 (ip), vehicle: saline with Tween-80) 87 % of control; (dose: 100.0 mg/kg/injection, schedule: Q01DX005 (ip), vehicle: saline with Tween-80) 93 % of control.

Turning to `O=[N+]([O-])c1ccc(CSC2=NCCN2)cc1`, the T/C under setting [13] is 106 % of control.

On to `N#CC(=C1SCS1)[N+](=O)[O-]`, for which the T/C by setting is: (dose: 0.37 mg/kg/injection, schedule: Q01DX009 (ip), vehicle: saline with Tween-80) 101 % of control and 102 % of control; (dose: 0.75 mg/kg/injection, schedule: Q01DX009 (ip), vehicle: saline with Tween-80) 101 % of control; (dose: 1.5 mg/kg/injection, schedule: Q01DX009 (ip), vehicle: saline with Tween-80) 100 % of control and 102 % of control; under setting [15], 102 % of control and 104 % of control; under setting [16], 108 % of control; under setting [17], 106 % of control.

For the compound `Cc1ccccc1Nc1c2ccccc2nc2ccccc12`, the T/C is 98 % of control (dose: 12.5 mg/kg/injection, schedule: Q04DX003 (ip), vehicle: saline with Tween-80); 104 % of control (dose: 25.0 mg/kg/injection, schedule: Q04DX003 (ip), vehicle: saline with Tween-80); 87 % of control (dose: 50.0 mg/kg/injection, schedule: Q04DX003 (ip), vehicle: saline with Tween-80).

As to `Cc1c(Cl)c(C)c(Cl)c(C)c1Cl`, the T/C was 101 % of control under setting [5], 96 % of control under setting [6] and 101 % of control under setting [7].

For the compound `NC(CCNCCc1ccccc1)CNCCc1ccccc1` (configuration not stated), the T/C by setting is: (dose: 75.0 mg/kg/injection, schedule: Q01DX001 (ip), vehicle: saline) 107 % of control; (dose: 150.0 mg/kg/injection, schedule: Q01DX001 (ip), vehicle: saline) 92 % of control.

As for `O=C(O)c1ccccc1NCc1ccccc1`, the T/C reads like this: under setting [5], 100 % of control; under setting [6], 96 % of control; under setting [7], 87 % of control.

In the case of `Cc1ccc(S(=O)(=O)N(Cc2ccc(Cl)cc2)N2CCOC2=O)cc1`, the T/C is 92 % of control (dose: 50.0 mg/kg/injection, schedule: Q01DX009 (ip), vehicle: Klucel (hydroxypropylcellulose) (HPC)); 93 % of control (dose: 100.0 mg/kg/injection, schedule: Q01DX009 (ip), vehicle: Klucel (hydroxypropylcellulose) (HPC)); 98 % of control (dose: 200.0 mg/kg/injection, schedule: Q01DX009 (ip), vehicle: Klucel (hydroxypropylcellulose) (HPC)).

Turning to `C=CCc1cn(C2CC(O)C(CO)O2)c(=O)[nH]c1=O` (configuration not stated), the T/C under setting [10] is 94 % of control and 104 % of control; the T/C under setting [11] is 101 % of control and 107 % of control; the T/C under setting [12] is 95 % of control and 108 % of control; the T/C under setting [13] is 103 % of control and 110 % of control; the T/C under setting [14] was 104 % of control and 106 % of control; the T/C (dose: 400.0 mg/kg/injection, schedule: Q01DX009 (ip), vehicle: saline) is 118 % of control and 111 % of control (2×).

As for `CC(C)(C)CC(C)(C)NCC(O)COc1ccc(C(C)(C)c2ccc(OCC(O)CNC(C)(C)CC(C)(C)C)cc2)cc1` (configuration not stated), the T/C reads like this: under setting [15], 102 % of control; (dose: 3.12 mg/kg/injection, schedule: Q01DX009 (ip), vehicle: Klucel (hydroxypropylcellulose) (HPC)) 93 % of control; under setting [16], 100 % of control; (dose: 6.25 mg/kg/injection, schedule: Q01DX009 (ip), vehicle: Klucel (hydroxypropylcellulose) (HPC)) 94 % of control; under setting [17], 94 % of control; (dose: 12.5 mg/kg/injection, schedule: Q01DX009 (ip), vehicle: Klucel (hydroxypropylcellulose) (HPC)) 100 % of control.
